Source: BindingDB's records for doi:10.7270/Q2HM5725 (Burnham Center For Chemical Genomics, 2012)
pIC50: −log10 of the molar value.

Molecular target: Neuropilin-1 (Homo sapiens, UniProt O14786)
Sequence (O14786 whole entry): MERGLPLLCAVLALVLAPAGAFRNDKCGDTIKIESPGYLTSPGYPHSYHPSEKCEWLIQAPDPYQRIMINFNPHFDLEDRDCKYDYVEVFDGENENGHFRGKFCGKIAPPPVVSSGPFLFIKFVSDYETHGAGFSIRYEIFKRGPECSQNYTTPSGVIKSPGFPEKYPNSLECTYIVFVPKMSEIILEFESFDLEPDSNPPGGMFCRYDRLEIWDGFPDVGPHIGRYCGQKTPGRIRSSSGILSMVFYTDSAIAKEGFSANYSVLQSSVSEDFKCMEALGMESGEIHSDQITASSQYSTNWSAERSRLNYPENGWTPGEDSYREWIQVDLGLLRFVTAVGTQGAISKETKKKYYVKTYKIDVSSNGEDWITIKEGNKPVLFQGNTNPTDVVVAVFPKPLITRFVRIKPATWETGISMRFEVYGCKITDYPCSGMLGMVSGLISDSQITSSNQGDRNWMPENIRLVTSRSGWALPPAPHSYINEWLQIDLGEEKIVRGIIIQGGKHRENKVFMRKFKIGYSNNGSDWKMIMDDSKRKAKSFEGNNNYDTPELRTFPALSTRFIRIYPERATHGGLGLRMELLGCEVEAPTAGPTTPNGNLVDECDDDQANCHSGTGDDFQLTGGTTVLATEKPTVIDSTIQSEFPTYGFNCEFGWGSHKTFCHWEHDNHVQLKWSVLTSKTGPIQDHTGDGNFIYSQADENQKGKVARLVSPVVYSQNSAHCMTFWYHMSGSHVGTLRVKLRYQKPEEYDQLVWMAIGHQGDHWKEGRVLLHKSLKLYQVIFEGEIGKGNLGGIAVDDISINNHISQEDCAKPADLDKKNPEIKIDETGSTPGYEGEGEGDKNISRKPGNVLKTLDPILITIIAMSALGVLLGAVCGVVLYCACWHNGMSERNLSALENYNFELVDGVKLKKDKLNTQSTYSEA

Compound | pIC50
CCC1=C(OC(=O)N(CC)CC)N2C(=O)O/C(=N\CC(=O)OC)[C@]2(C)[C@H]2C1=CC[C@H]1C(=O)N(CC)C(=O)[C@H]12 [SMR000440357] | < 4.02
CCC(NCCc1ccccc1)=C1C(=O)NC(=O)N(C2CCCCC2)C1=O [MLS000557927] | < 4.02
Cc1ccc(N=CC(S(=O)(=O)c2ccccc2)S(=O)(=O)c2ccccc2)cc1 | < 4.02
CCC1=C(OC(=O)N(CC)CC)N2C(=O)O/C(=N\CC3CC3)[C@]2(Cc2ccccc2)[C@H]2C1=CC[C@H]1C(=O)N(C)C(=O)[C@H]12 [SMR000440396] | < 4.02
C=CCN1C(=O)C2(c3ccccc3OC(=N)C2C(=O)OCC)c2c1c1ccccc1oc2=O (configuration not stated) [2-amino-2',4'-dioxo-1'-prop-2-enyl-3-spiro[1-benzopyran-4,3'-[1]benzopyrano[4,3-b]pyrrole]carboxylic acid ethyl ester] | < 4.02
Cc1ccc2c(c1)=C(c1ccncc1)NN=C(c1ccc(F)cc1)N=2 [MLS000692744] | < 4.02
O=C(Cc1ncnc2c1ncn2C1OC(CO)C(O)C1O)c1ccccc1 (configuration not stated) | < 4.02
Cc1cc2c(cc1C)NC(c1nc3ccccc3[nH]1)C1C(=O)CC(C)(C)CC1=N2 (configuration not stated) [SMR000120514] | < 4.02
CCOC(=O)C1=C(C)N=C2CCCC(=O)C2C1c1cn(Cc2ccc(Cl)cc2Cl)nc1-c1ccccc1 (configuration not stated) [4-[1-[(2,4-dichlorophenyl)methyl]-3-phenyl-4-pyrazolyl]-2-methyl-5-oxo-4,6,7,8-tetrahydro-1H-quinoline-3-carboxylic acid ethyl ester] | < 4.02
CC(C)C1=NC(=O)NC2CCCCC12 (configuration not stated) [SMR000060291] | < 4.02
CCOc1ccc(-n2c(O)cc(N3CCN(c4ccc(Cl)cc4)CC3)c2O)cc1 [3-[4-(4-Chloro-phenyl)-piperazin-1-yl]-1-(4-ethoxy-phenyl)-pyrrolidine-2,5-dione] | < 4.02
C=CCOc1ccc(C2C(C(=O)c3c(C)[nH]c(C(=O)OC)c3C)C(=O)C(=O)N2CCN(C)C)cc1 (configuration not stated) [MLS000081294] | < 4.02
COC(=O)C1=C(C)N=C(C)C(C(=O)OC)C1C(=O)OC(C)C(=O)c1ccccc1 (configuration not stated) [2,6-dimethyl-1,4-dihydropyridine-3,4,5-tricarboxylic acid O3,O5-dimethyl ester O4-(1-oxo-1-phenylpropan-2-yl) ester] | < 4.02
CCC1=C(OC(=O)N(CC)CC)N2C(=O)O/C(=N\CCOC)[C@]2(Cc2ccccc2)[C@H]2C1=CC[C@H]1C(=O)N(CC(=O)OC)C(=O)[C@H]12 [SMR000440375] | < 4.02
COc1ccc(-n2c(O)cc(SCCc3nc4ccccc4[nH]3)c2O)cc1 [SMR000200354] | < 4.02
Cn1cccc1C1Nc2ccccc2N=C2CC(C)(C)CC(=O)C21 (configuration not stated) [MLS000533228] | < 4.02
COc1ccc2c(c1)N(C)/C(=C1/S/C(=N\Cc3ccccc3)N(c3ccccc3)C1=O)S2 [(5Z)-5-(5-methoxy-3-methyl-1,3-benzothiazol-2-ylidene)-3-phenyl-2-(phenylmethyl)imino-1,3-thiazolidin-4-one] | < 4.02
CC1(c2ccccc2)CC(C)(C)N2C(=O)/C(=C3/NC(=S)NC3=O)c3cccc1c32 (configuration not stated) [SMR000221518] | < 4.02
CCC1=C(OC(=O)N(CC)CC)N2C(=O)O/C(=N\CC(=O)OC)[C@]2(Cc2ccccc2)[C@H]2C1=CC[C@H]1C(=O)N(CC(=O)OC)C(=O)[C@H]12 [MLS000877797] | < 4.02
COc1cccc(N2[C@@H](CC(C)=O)c3ccc(C=CC(C)=O)cc3S2(=O)=O)c1 [(E)-4-[(3S)-2-(3-methoxyphenyl)-1,1-bis(oxidanylidene)-3-(2-oxidanylidenepropyl)-3H-1,2-benzothiazol-6-yl]but-3-en-2-one] | < 4.02
Cc1ccc(CN=Nc2nc3ccccc3[nH]2)s1 [SMR000261490] | < 4.02
CCOC(=O)C1C(=O)C(=O)N(c2ccccc2)C1c1cccc([N+](=O)[O-])c1 (configuration not stated) [ethyl 2-(3-nitrophenyl)-4-oxidanyl-5-oxidanylidene-1-phenyl-2H-pyrrole-3-carboxylate] | < 4.02
